Test results from patent US20050197350A1, “Novel quinoline, tetrahydroquinazoline, and pyrimidine derivatives and methods of treatment related to the use thereof” (TAISHO PHARMACEUTICAL CO., LTD., priority 2003, published 2005).

Tested on: MCH receptors
Experiment: MCH receptor activity class (method not given)
Settings: class by percent of control at 10^-7 M or IC50

SMILES | class
COc1cc(OC)c(NC(=O)N[C@H]2CC[C@@H](Nc3cc(N(C)C)c4ccccc4n3)CC2)cc1Cl [compound 2157, N-(5-chloro-2,4-dimethoxyphenyl)-N′-(cis-4-{[4-(dimethylamino)quinolin-2-yl]amino}cyclohexyl)urea] | 1 (Class 1: The value of percent of control at 10^−7 M was less than 40% or the value of IC50 was less than 50 nM.)
Cc1cc(Br)ccc1NC(=O)N[C@H]1CC[C@@H](Nc2cc(N(C)C)c3ccccc3n2)CC1 [compound 2159] | 2 (Class 2: The value of percent of control at 10^−7 M was from 40% to 60% or the value of IC′50 was from 50 nM to 200 nM.)
CN(C)c1cc(N[C@H]2CC[C@@H](NC(=O)Nc3ccc4c(c3)OCCO4)CC2)nc2ccccc12 [compound 2161] | 3 (Class 3 The value of percent of control at 10^−7 M was more than 60% or the value of IC50 was more than 200 nM.)
CC(C)c1cc(Br)c(NC(=O)N[C@H]2CC[C@@H](Nc3cc(N(C)C)c4ccccc4n3)CC2)c(Br)c1 [compound 2162] | 3 (Class 3 The value of percent of control at 10^−7 M was more than 60% or the value of IC50 was more than 200 nM.)
COc1ccc(NC(=O)N[C@H]2CC[C@@H](Nc3cc(N(C)C)c4ccccc4n3)CC2)cc1OC1CCCC1 [compound 2163] | 3 (Class 3 The value of percent of control at 10^−7 M was more than 60% or the value of IC50 was more than 200 nM.)
CN(C)c1cc(N[C@H]2CC[C@@H](NC(=O)Nc3ccc4c(c3)OCCCO4)CC2)nc2ccccc12 [compound 2164] | 3 (Class 3 The value of percent of control at 10^−7 M was more than 60% or the value of IC50 was more than 200 nM.)
CCCCc1ccc(NC(=O)N[C@H]2CC[C@@H](Nc3cc(N(C)C)c4ccccc4n3)CC2)c(C)c1 [compound 2165] | 3 (Class 3 The value of percent of control at 10^−7 M was more than 60% or the value of IC50 was more than 200 nM.)
Cc1onc(-c2ccccc2)c1NC(=O)N[C@H]1CC[C@@H](Nc2cc(N(C)C)c3ccccc3n2)CC1 [compound 2166] | 3 (Class 3 The value of percent of control at 10^−7 M was more than 60% or the value of IC50 was more than 200 nM.)
CN(C)c1cc(N[C@H]2CC[C@@H](NC(=S)Nc3ccc(Br)cc3)CC2)nc2ccccc12 [compound 2167] | 3 (Class 3 The value of percent of control at 10^−7 M was more than 60% or the value of IC50 was more than 200 nM.)
CN(C)c1cc(N[C@H]2CC[C@@H](NC(=S)Nc3ccc(C#N)cc3)CC2)nc2ccccc12 [compound 2168] | 3 (Class 3 The value of percent of control at 10^−7 M was more than 60% or the value of IC50 was more than 200 nM.)
CN(C)c1cc(N[C@H]2CC[C@@H](NC(=S)Nc3ccc(Cl)cc3Cl)CC2)nc2ccccc12 [compound 2169] | 3 (Class 3 The value of percent of control at 10^−7 M was more than 60% or the value of IC50 was more than 200 nM.)
COc1ccc(NC(=S)N[C@H]2CC[C@@H](Nc3cc(N(C)C)c4ccccc4n3)CC2)c(OC)c1 [compound 2170] | 2 (Class 2: The value of percent of control at 10^−7 M was from 40% to 60% or the value of IC′50 was from 50 nM to 200 nM.)
Cc1cccc(C)c1NC(=S)N[C@H]1CC[C@@H](Nc2cc(N(C)C)c3ccccc3n2)CC1 [compound 2171] | 3 (Class 3 The value of percent of control at 10^−7 M was more than 60% or the value of IC50 was more than 200 nM.)
CCc1cccc(C(C)C)c1NC(=S)N[C@H]1CC[C@@H](Nc2cc(N(C)C)c3ccccc3n2)CC1 [compound 2172] | 3 (Class 3 The value of percent of control at 10^−7 M was more than 60% or the value of IC50 was more than 200 nM.)
COc1ccccc1NC(=S)N[C@H]1CC[C@@H](Nc2cc(N(C)C)c3ccccc3n2)CC1 [compound 2173] | 3 (Class 3 The value of percent of control at 10^−7 M was more than 60% or the value of IC50 was more than 200 nM.)
CN(C)c1cc(N[C@H]2CC[C@@H](NC(=S)Nc3cccc4ccccc34)CC2)nc2ccccc12 [compound 2174] | 3 (Class 3 The value of percent of control at 10^−7 M was more than 60% or the value of IC50 was more than 200 nM.)
